Results taken from PubChem BioAssay (NCI).
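Values below derive from 48-hour exposures of cells grown in 96-well plates, with endpoints linearly interpolated between the two concentrations bracketing the appropriate inhibition level. The concentration for 50% growth inhibition is given as GI50. TGI denotes the concentration required for complete inhibition of growth.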

Experiments:
Test in all cases: inhibition of tumour cell growth, NCI panel, 48 h
SR leukemia = system: SR leukemia
SK-OV-3 ovarian = system: SK-OV-3 ovarian
786-0 renal = system: 786-0 renal
RPMI-8226 leukemia = system: RPMI-8226 leukemia
CAKI-1 renal = system: CAKI-1 renal
HL-60(TB) leukemia = system: HL-60(TB) leukemia
SNB-75 CNS = system: SNB-75 CNS
SF-268 CNS = system: SF-268 CNS
K-562 leukemia = system: K-562 leukemia
NCI-H522 lung = system: NCI-H522 lung
HCC-2998 colon = system: HCC-2998 colon

Compound | TGI (SR leukemia) [µM] | TGI (SK-OV-3 ovarian) [µM] | TGI (786-0 renal) [µM] | TGI (RPMI-8226 leukemia) [µM] | TGI (CAKI-1 renal) [µM] | TGI (HL-60(TB) leukemia) [µM] | TGI (SNB-75 CNS) [µM] | TGI (SF-268 CNS) [µM] | TGI (K-562 leukemia) [µM] | TGI (NCI-H522 lung) [µM] | TGI (HCC-2998 colon) [µM] | GI50 (SR leukemia) [µM] | GI50 (SK-OV-3 ovarian) [µM] | GI50 (RPMI-8226 leukemia) [µM] | GI50 (CAKI-1 renal) [µM] | GI50 (HL-60(TB) leukemia) [µM] | GI50 (SNB-75 CNS) [µM] | GI50 (SF-268 CNS) [µM] | GI50 (K-562 leukemia) [µM]
NC(=S)N/N=C/c1cc(CN2CCOCC2)c(N)cn1 | > 100 | > 100 | > 100 | > 100 | > 100 | > 100 | 89.4 | > 100 | > 100 | – | – | – | – | – | – | – | – | – | –
CCOC(=O)CCc1c(C(=O)OCC)[nH]c(/C=C2/NC(=O)C(C)=C2CC)c1C | 20.4 | > 100 | 46.2 | – | 80.2 | 25.7 | 42.7 | 29.2 | 12.9 | 31.8 | – | – | – | – | – | – | – | – | –
O=C1/C(=C/c2cccc([N+](=O)[O-])c2)COc2ccccc21 | – | > 62.8 | 3.16 | – | > 100 | 5.59 | > 61.5 | > 80.3 | > 28.5 | 3.1 | > 23.4 | – | – | – | – | – | – | – | –
Nc1ncc2c(n1)-c1ccccc1OC2NC1CC1 (stereo not drawn) | > 100 | > 100 | > 100 | > 100 | > 100 | > 100 | > 100 | > 100 | – | > 100 | – | – | – | – | – | – | – | – | –
CC1CN=C(NCc2ccccc2)S1 (stereo not drawn) | > 100 | > 100 | – | > 100 | – | > 100 | > 100 | > 100 | > 100 | > 100 | > 100 | – | – | – | – | – | – | – | –
COc1ccc(NC(=O)C2=C(SC)C(C#N)C(=O)N=C2N)cc1 (stereo not drawn) | > 100 | > 100 | > 100 | > 100 | > 100 | > 100 | – | > 100 | > 100 | 32.1 | > 100 | – | – | – | – | – | – | – | –
CC(=O)Nc1ccc(-c2nnc(SCC(=O)Nc3ccccc3Cl)o2)cc1 | – | > 100 | > 100 | – | > 100 | > 100 | > 100 | > 100 | > 100 | > 100 | > 100 | – | – | – | – | – | – | – | –
COc1cc(/C=C2\CCCC3=C2NC(N)=NC3c2cc(OC)c(OC)c(OC)c2)cc(OC)c1OC (stereo not drawn) | 3.74 | > 100 | – | 1.79 | 7.69 | > 100 | > 100 | > 100 | > 100 | – | – | 0.51 | 3.43 | 0.291 | 1.44 | 2.6 | 8.02 | 2.42 | 2.15
N#Cc1c(-c2ccccc2)c(C#N)c(=O)n(NS(=O)(=O)c2ccccc2)c1O | – | > 100 | > 100 | > 100 | > 100 | > 100 | > 100 | > 100 | > 100 | > 100 | > 100 | – | – | – | – | – | – | – | –
COc1cc(C2c3cccc4cccc(c34)C3CCC(=O)N32)cc(O)c1O (stereo not drawn) | 29.5 | > 50 | > 50 | 30.9 | – | > 50 | > 50 | – | 40.3 | – | – | – | – | – | – | – | – | – | –
Fc1ccc(C(OCCN2CCC3CCC(C2)N3CCCc2ccccc2)c2ccc(F)cc2)cc1 (stereo not drawn) | – | 24.8 | 5.57 | 5.11 | 18.3 | 5.21 | 10.3 | 19.8 | 5.8 | 12.1 | 4.05 | – | – | – | – | – | – | – | –
Cc1ccc(S(=O)(=O)N/N=C2\C(=O)C3CC2C(Cl)C3Cl)cc1 (stereo not drawn) | > 100 | > 100 | > 100 | > 100 | > 100 | > 100 | > 100 | > 100 | > 100 | – | > 100 | – | – | – | – | – | – | – | –
C/C(C=O)=N\Nc1cc(C)c2ccccc2n1 | 4.17 | 45 | 28.7 | 39 | 30.7 | – | 30.3 | 43.2 | 46.6 | 47.1 | 29.3 | – | – | – | – | – | – | – | –
Cc1ccc(S(=O)(=O)N(c2ccccc2F)C2CCCCC2O)cc1 (stereo not drawn) | 51.8 | 64 | > 100 | > 100 | – | > 100 | 88.5 | > 100 | > 100 | – | > 100 | – | – | – | – | – | – | – | –
O=C(O)Cc1cc(=O)oc2cc(O)c(Cl)cc12 | – | > 100 | > 100 | > 100 | > 100 | > 100 | > 100 | > 100 | > 100 | > 100 | > 100 | – | – | – | – | – | – | – | –
CSc1nc(C)cc(Nc2ccc(O)c(CN3CCCCC3)c2)n1 | > 100 | > 100 | 49.1 | 71.4 | > 100 | – | > 100 | > 100 | > 100 | > 100 | – | – | – | – | – | – | – | – | –
CN(C(=O)C1=CCCCCC1)c1ccccc1I | > 100 | > 100 | > 100 | > 100 | > 100 | > 100 | 79.7 | 95.9 | > 100 | – | > 100 | – | – | – | – | – | – | – | –
Oc1cn(-c2ccc(Cl)cc2)nc1-c1nnc(Nc2ccccc2)o1 | – | 49.4 | 36.1 | – | > 100 | – | 45.2 | 33.7 | – | 35.4 | – | – | – | – | – | – | – | – | –
CCOP(=O)(CS(C)=O)O[C@@H]1C[C@H](C)CC[C@H]1C(C)C (stereo partly drawn) | > 100 | 19.9 | 6.35 | 5.3 | 12.8 | > 36.4 | > 27.5 | 21.3 | > 100 | 6.19 | – | – | – | – | – | – | – | – | –
COc1ccc(/C=C2/C(=O)N(C(=O)c3ccc(Cl)cc3)N=C2C)cc1OC | – | > 100 | > 100 | > 100 | > 100 | > 100 | – | > 100 | > 100 | > 100 | > 100 | – | – | – | – | – | – | – | –
COc1c(O)cc(/C=C/c2cc(O)cc3c2[C@@]2(C(=O)O3)c3c(O)cc(O)cc3OC2c2cccc(O)c2)cc1O (stereo partly drawn) | 26.5 | 74.8 | > 100 | 52.8 | > 100 | 69.1 | – | > 100 | 91.9 | > 100 | – | – | – | – | – | – | – | – | –
CCOC(=O)[C@H]1C[C@@H](C(=O)c2ccccc2)N2N=C(c3ccc(Br)cc3)C=C[C@H]12 | > 100 | > 100 | > 100 | > 100 | > 100 | – | > 100 | > 100 | > 100 | – | > 100 | – | – | – | – | – | – | – | –
